Results on two molecules are retold here after paper PMC5146650, “Effect of arginine on oligomerization and stability of N-acetylglutamate synthase” (Scientific Reports, 2016).

The target in assay [1] is T1, mNAGS-C (Mus musculus, UniProt Q8R4H7).
T1 construct: gene Nags; conserved segment only, mitochondrial targeting signal and variable segment removed
T1 sequence (Q8R4H7 84-527 limits assumed): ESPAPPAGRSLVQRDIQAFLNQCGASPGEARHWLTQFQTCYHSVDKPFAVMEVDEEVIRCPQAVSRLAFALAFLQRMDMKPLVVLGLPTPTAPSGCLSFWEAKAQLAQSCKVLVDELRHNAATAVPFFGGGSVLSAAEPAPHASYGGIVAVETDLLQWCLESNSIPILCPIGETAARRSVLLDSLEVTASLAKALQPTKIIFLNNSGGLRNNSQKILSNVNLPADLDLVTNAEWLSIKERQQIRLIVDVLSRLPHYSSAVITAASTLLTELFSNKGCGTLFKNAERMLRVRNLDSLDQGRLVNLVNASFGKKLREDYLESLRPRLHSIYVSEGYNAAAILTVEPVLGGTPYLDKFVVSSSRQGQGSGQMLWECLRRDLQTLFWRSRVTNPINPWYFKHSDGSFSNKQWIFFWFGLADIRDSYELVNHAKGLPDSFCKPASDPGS
Briefly: Thermofluor thermal shift, SYPRO Orange. It is filed as binding. The following applies: read-out: change in Tm at 10 mM. On the technique in general: DSF heats the sample and reads unfolding from a dye or from intrinsic fluorescence.

The target of another assay is T2, XcNAGS-K (Xanthomonas campestris, UniProt B0RS52).
T2 construct: gene argB
T2 sequence (B0RS52 1-447): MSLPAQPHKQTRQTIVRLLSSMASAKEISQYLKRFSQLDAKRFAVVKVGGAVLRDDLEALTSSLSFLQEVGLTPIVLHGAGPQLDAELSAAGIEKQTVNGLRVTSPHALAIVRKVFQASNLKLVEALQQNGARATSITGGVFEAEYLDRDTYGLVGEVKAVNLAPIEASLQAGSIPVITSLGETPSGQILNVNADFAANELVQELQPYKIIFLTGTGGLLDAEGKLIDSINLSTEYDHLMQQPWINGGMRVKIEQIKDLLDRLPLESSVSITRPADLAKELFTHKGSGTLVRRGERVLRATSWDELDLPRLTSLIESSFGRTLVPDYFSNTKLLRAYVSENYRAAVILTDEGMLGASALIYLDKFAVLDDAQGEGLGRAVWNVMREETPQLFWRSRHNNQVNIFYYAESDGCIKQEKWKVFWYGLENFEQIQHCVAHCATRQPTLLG
Briefly: sedimentation velocity ultracentrifugation and Thermofluor. Type of assay: binding. The following applies: 1 mM L-arginine; 10 mM Tris, 50 mM KCl, 1 mM TCEP, pH 8.0, 20 °C (ultracentrifugation); allosteric.

The target of assay [2] is T3, mNAGS-M (Mus musculus, UniProt Q8R4H7).
T3 construct: gene Nags; mature form, mitochondrial targeting signal removed, variable segment kept
T3 sequence (Q8R4H7 51-527): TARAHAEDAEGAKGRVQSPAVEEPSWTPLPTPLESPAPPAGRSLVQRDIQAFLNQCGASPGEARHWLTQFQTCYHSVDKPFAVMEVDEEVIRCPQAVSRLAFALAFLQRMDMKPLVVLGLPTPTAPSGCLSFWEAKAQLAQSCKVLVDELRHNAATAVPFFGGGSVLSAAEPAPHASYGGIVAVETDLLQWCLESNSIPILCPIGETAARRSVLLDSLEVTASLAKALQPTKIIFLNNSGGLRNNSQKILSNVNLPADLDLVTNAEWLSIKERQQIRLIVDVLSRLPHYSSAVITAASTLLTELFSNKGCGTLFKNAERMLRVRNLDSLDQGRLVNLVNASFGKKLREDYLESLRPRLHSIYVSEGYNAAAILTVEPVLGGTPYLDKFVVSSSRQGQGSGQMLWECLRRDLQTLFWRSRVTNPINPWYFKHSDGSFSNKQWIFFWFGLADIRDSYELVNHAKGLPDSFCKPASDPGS
Briefly: NAGS activity assay after […] min preincubation at […]-45 °C. It is filed as biochemical. Particulars: 1 mM L-arginine; assayed at 30 °C; allosteric activator; range covers mNAGS-M and mNAGS-C.

Assay [3] has as its target T1, mNAGS-C. Described as above. Type of assay: biochemical. Particulars: 1 mM L-arginine; assayed at 30 °C; allosteric activator; range covers mNAGS-M and mNAGS-C.
In assay [4] the target is T3, mNAGS-M. Briefly: Thermofluor thermal shift, SYPRO Orange. Type of assay: binding. The following applies: read-out: change in Tm at 10 mM.
A further assay deals with T4, MmNAGS-K (Maricaulis maris, UniProt Q0ASS9).
T4 construct: gene Mmar10_0365
T4 sequence (Q0ASS9 1-441): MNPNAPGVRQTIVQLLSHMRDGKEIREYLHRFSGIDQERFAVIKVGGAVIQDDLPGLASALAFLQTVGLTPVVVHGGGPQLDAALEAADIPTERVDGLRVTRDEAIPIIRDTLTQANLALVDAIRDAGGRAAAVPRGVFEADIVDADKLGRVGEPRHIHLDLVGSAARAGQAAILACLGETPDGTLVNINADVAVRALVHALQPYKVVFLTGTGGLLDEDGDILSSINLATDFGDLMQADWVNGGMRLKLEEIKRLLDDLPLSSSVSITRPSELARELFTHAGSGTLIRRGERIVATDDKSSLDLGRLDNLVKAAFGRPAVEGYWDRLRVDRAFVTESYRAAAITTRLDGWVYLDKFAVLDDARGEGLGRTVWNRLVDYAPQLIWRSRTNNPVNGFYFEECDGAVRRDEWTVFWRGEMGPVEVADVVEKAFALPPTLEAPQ
Put plainly: Thermofluor thermal shift, SYPRO Orange. Type of assay: binding. The following applies: read-out: change in Tm at 10 mM.

The next assay has as its target T5, NgNAGS (Neisseria gonorrhoeae, UniProt Q5FAK7).
T5 construct: gene argA; hexamer
T5 sequence (Q5FAK7 1-436): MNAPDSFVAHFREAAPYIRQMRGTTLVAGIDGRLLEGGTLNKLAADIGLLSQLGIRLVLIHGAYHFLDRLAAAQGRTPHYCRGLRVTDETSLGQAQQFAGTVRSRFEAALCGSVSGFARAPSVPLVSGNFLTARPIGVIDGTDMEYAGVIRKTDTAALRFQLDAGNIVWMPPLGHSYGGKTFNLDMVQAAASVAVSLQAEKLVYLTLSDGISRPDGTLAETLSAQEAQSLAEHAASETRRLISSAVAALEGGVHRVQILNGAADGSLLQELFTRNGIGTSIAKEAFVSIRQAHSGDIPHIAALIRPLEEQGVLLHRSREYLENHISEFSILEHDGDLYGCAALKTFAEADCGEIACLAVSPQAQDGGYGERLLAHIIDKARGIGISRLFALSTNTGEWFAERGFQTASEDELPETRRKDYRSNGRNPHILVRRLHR
Put plainly: Thermofluor thermal shift, SYPRO Orange. The following applies: read-out: change in Tm at 1 mM. It is filed as binding.

Assay [5] concerns the target bifunctional N-acetylglutamate synthase-kinase from Xanthomonas campestris (Xanthomonas campestris). Put plainly: AUC; sedimentation velocity, global fit of raw data with explicit Lamm equation solutions and reaction kinetics, tetramer-octamer model (octamer to tetramers); without L-arginine; 35, 26, 17, 12, 9, 4 and 2 uM monomer, 20 °C, 10 mM Tris, 50 mM KCl, 1 mM TCEP.

Assay [6] shares this target. Put plainly: AUC; sedimentation velocity, sw isotherm fitted to a tetramer-octamer association model (octamer to tetramers); with 1 mM L-arginine; 20 °C, 50,000 rpm, 10 mM Tris, 50 mM KCl, 1 mM TCEP, pH 8.0.
The target is the same in assay [7]. Briefly: AUC; sedimentation velocity, c(s) distributions and sw isotherm fitted to a tetramer-octamer association model (octamer to tetramers); without L-arginine; 2-40 uM monomer, 20 °C, 50,000 rpm, 10 mM Tris, 50 mM KCl, 1 mM TCEP, pH 8.0.

“And” between values parts separate entries of the source, which are not always exact repeats. Equal entries are not always repeated.

As for `N=C(N)NCCC[C@H](N)C(=O)O` [L-arginine], the ΔTm at 10000 µM on mNAGS-C [1] was around 5 °C; on mNAGS-M [4], around 5 °C; on MmNAGS-K, around 10 °C. Besides, the “sedimentation velocity ultracentrifugation and Thermofluor” value at XcNAGS-K is “equilibrium between XcNAGS-K tetramers and octamers depends on the presence and binding of L-arginine”. In addition, the “fold increase of specific activity at 1 mM” value on mNAGS-M [2] and at mNAGS-C [3] was 1.5- to 4 throughout. Also, the ΔTm at 1000 µM on NgNAGS is around -2.5 °C.
Regarding “bifunctional N-acetylglutamate synthase-kinase from Xanthomonas campestris (enzyme)”, in assay [5], the Kd (as a rule, a measure of binding affinity in units of concentration) turned out to be 2600 nM; the half-life for the octamer amounted to 45 min; the log10koff is -3.6. In [6], this molecule showed a Kd of 37000 nM. In addition, in [7], the Kd was 2900 nM; the stoichiometry N – broadly, a count of units in the complex or per binding partner – was 4 and 8.
